Patent publication US20080280890A1, “HYDROXYLAMINE COMPOUNDS AND METHODS OF THEIR USE” (priority 2007, published 2008)

Legend:
lipid peroxidation = assay: Lipid peroxidation inhibition (method of Ohkawa); type: biochemical
[1] = tested on: Angiogenesis in CAM model; assay: Neovascularization on the CAM (chick chorioallantoic membrane model of angiogenesis); type: in vivo, chicken; settings: 30 ug; for Percent inhibition of angiogenesis in CAM model at 30 ug: unit assumed
Experimental: In vivo neovascularization was examined by the method previously described by Auerbach et al. (J. Dev. Biol. 41:391-394 (1974)). Ten-day old chicken embryos were purchased from Spafas, Inc. (Preston, Conn.) and were incubated at 37° C. with 55% relative humidity. In the dark, with the aid of a candling lamp, a small hole was punctured in the shell concealing the air sac with a hypodermic needle. A second hole was punctured in the shell on the broadside of the egg directly over an […] portion of the embryonic membrane, as observed during candling. An artificial air sac was created beneath the second hole by applying gentle vacuum to the first hole using a small rubber squeeze bulb. The vacuum caused the chorioallantoic membrane (CAM) to separate from the shell.
A window, approximately 1.0 cm^2, was cut in the shell over the dropped CAM with the use of a small crafts grinding wheel (Dremel, Division of Emerson Electric Company Racine, Wis.). The window allowed direct access to the underlying CAM.
A pro-angiogenic agent was added to induce new blood vessel branches on the CAM of 10-day old embryos. Filter disks of #1 filter paper (Whatman International, United Kingdom) were punched using a small puncher and were soaked in 3 mg/mL cortisone acetate (Sigma, St. Louis, Mo.) in a solution (95% ethanol and water). The disks were subsequently air dried under sterile conditions. The disks were then suspended in PBS (Phosphate Buffered Saline) and placed on growing CAMs. Filters treated with TP-H (TEMPOL-H) or TEMPOL and/or H2O2 or TP-H and/or bFGF or VEGF were placed on the first day of the 3-day incubation.
For inducing angiogenesis, sterile filter disks were saturated with bFGF (1 μg/ml) (Life Technologies, Gaithersburg, Md.) or other pro-angiogenesis factors and control disks were saturated with PBS without Calcium and Magnesium. […]
Using sterile forceps one filter/CAM was placed from the window. The window was sealed with Highland brand transparent tape.
After 24-48 hr, 10-25 ul of test agent was injected intravenously or added topically into the CAM membrane. Eight-Ten eggs/treatment group were used.
CAM tissue directly beneath filter disk was harvested from embryos treated 48 hours prior with compound or control. Tissues were washed three times with PBS. Sections were placed in a 35-mm petri dish (Nalge Nunc, Rochester, N.Y.) and examined under a SV6 stereomicroscope (Karl Zeiss, Thornwood, N.Y.) at 50× magnification.
CAM sections from Petri dish were examined using SV6 stereomicroscope (Karl Zeiss) at 50× magnification. Digital images of CAM sections from Petri dish were collected using a 3-CCD color video camera system (Toshiba America, New York, N.Y.). These images were analyzed using Image-Pro Plus software (Media Cybernetics, Silver Spring, Md.).
The number of branch points in blood vessels within the circular region superimposed to the area of a filter disk was counted for each section. After incubation at 37° C. with 55% relative humidity for 3 days, the CAM tissue directly beneath each filter disk was resected from control and treated CAM samples. Tissues were washed three times with PBS. Sections were placed in a 35-mm Petri dish (Nalge Nunc; Rochester, N.Y.) and were examined under a SV6 stereomicroscope (Karl Zeiss; Thornwood, N.Y.) at 50× magnification. Digital images of CAM sections adjacent to filters were collected using a 3-CCD color video camera system (Toshiba America; New York, N.Y.) and analyzed with the Image-Pro Plus software (Media Cybernetics; Silver Spring, Md.).
The number of vessel branch points contained in a circular region equal to the area of a filter disk was counted for each section. Percent inhibition data are expressed as the quotient of the experimental value minus the negative control value divided by the difference between the positive control value and the negative control value. […]

[2] = tested on: Human neuroblastoma SKN-SH cells, resistant to doxorubicin; assay: Chemoresistance: cancer cell viability (MTT) in presence or absence of doxorubicin; type: cell-based; settings: compound 50 ug/mL, MTT
Text: A method for evaluating a compound's propensity to overcome cancer cell chemoresistance is described in “Caspase Inhibition Switches Doxorubicin-Induced Apoptosis To Senescence”, Abdelhadi Rebbaa, Xin Zheng, Pauline M Chou and Bernard L Mirkin, Oncogene (2003) 22, 2805-2811. Resistant human cancer cells to doxorubicin were selected by stepwise exposure to drug concentrations ranging from 10^−9 M-10^−6 M over 3 months. They were then subjected to treatment with the doxorubicin alone or in combination with hydroxylamine compounds 1-12, 16, 20, and 21 (Table 4). The cells were incubated with the drugs for 72 hours, and cell viability was measured by the MTT assay. Additionally, molecular pathways that might be associated with increased chemo-responsiveness with these compounds were investigated. p Cancer Cell Viability Data for certain hydroxylamines in the presence or absence of Doxorubicin is listed in Table 4.
A method for evaluating a compound's propensity to overcome cancer cell chemoresistance is described in “Caspase Inhibition Switches Doxorubicin-Induced Apoptosis To Senescence”, Abdelhadi Rebbaa, Xin Zheng, Pauline M Chou and Bernard L Mirkin, Oncogene (2003) 22, 2805-2811. Human neuroblastoma SKN-SH cells (ATCC Cat. No. HTB-11) were cultured in Dulbecco's Modified Eagles Medium (DMEM; Gibco, Grand Island, N.Y.) supplemented with 10% fetal bovine serum (FBS; Sigma-Aldrich, St. Louis, Mo.) at 37° C. in a 95% Air/5% CO2 atmosphere. Resistant human cancer cells to doxorubicin were selected by stepwise exposure to drug concentrations ranging from 10^−9M-10^−6M over 3 months. They were then subjected to treatment with the doxorubicin alone or in combination with hydroxylamine compounds. The cells were incubated with the drugs for 72 hours, and cell viability was measured by the MTT assay. This consists of adding 10 μl/well of MTT (5 mg/ml solution) and incubation for 4 h at 37° C. The precipitate formed is then solubilized by addition of 100 μl of HCL 0.5 N/Isopropanol and incubation for 15 hours at 37° C. The optical density is measured at 570 nm and cell survival is estimated by comparison to untreated cells. Each point represents 4 wells data represent average ± SE. Additionally, molecular pathways that might be associated with increased chemo-responsiveness with these compounds were investigated.
Cytotoxic activity of doxorubicin and hydroxylamine analogs were quantitatively determined by a colorimetric assay utilizing 3-(4,5-dimethyl-2-thiazolyl) 2,5-diphenyl tetrazolium bromide (MTT; Sigma-Aldrich, St. Louis, Mo.). Briefly, cells were seeded at 10^4 cells/well in 96-well plates and maintained in culture for 24 hours at 37° C. in DMEM supplemented with 10% FBS. Drugs were added to designated wells and cells were incubated for […], following which MTT (10 μL of 5 mg/ml solution) was added to each 100 μl well and incubated for 4 hours at 37° C. The cells were solubilized by incubation with 100 μl of HCl 0.5N in isopropanol for 15 hours at 37° C. The optical density of this solution was measured at 570 nm and the percentage of viable cells estimated by comparison with untreated control cells.

Structure (SMILES) | Lipid Peroxidation % Inhibition (lipid peroxidation; 10 uM) | CAM data % Inhibition [1] | Mean OD (×10^−3), cancer cell viability ([2]; Dox. 10^−6 M present (+)) | Mean OD (×10^−3), cancer cell viability ([2]; Dox. absent (−)) | % Lipid Peroxidation inhibition (at 1 uM) (lipid peroxidation) | Percent inhibition of angiogenesis in CAM model at 30 ug [1] | melting point | Lipid Peroxidation % Inhibition (lipid peroxidation; 100 uM)
COc1cc2c(cc1O)CC[C@@H]1[C@@H]2CC[C@]2(C)[C@@H](O)CC[C@@H]12 [2-Methoxy estradiol, reference compound] | 92.3% | 92.3% | – | – | – | – | – | –
COC1CC(C)(C)N(O)C(C)(C)C1.Cl [Compound 1, 1-hydroxy-4-methoxy-2,2,6,6-tetramethylpiperidine] | 90.8% | – | 246.50 ×10^−3 | 524.75 ×10^−3 | 74.1% | 89.9% | – | –
CC1(C)CC(N2CCOCC2)CC(C)(C)N1O.Cl [Compound 3, 4-(2,2,6,6-tetramethylpiperidin-1-hydroxy-4-yl)morpholine] | 77.8% | – | 289.50 ×10^−3 | 640.25 ×10^−3 | – | 54.7% | – | –
CC1(C)CC(O)C(C)(C)N1O (stereo not drawn) [Compound 7, 2,2,5,5-Tetramethyl-Pyrrolidine-1,3-diol] | 82.9% | – | 241.25 ×10^−3 | 540.25 ×10^−3 | – | 100% | – | –
CC1(C)CC(NS(C)(=O)=O)CC(C)(C)N1O [Compound 10, 1-hydroxy-4-methanesulfonamido-2,2,6,6-tetramethylpiperidine] | 85.8% | – | 250.00 ×10^−3 | 456.00 ×10^−3 | – | 78.2% | – | –
CC(C)(C)/[N+]([O-])=C/c1ccccc1 [Compound 17, α-phenyl-t-butyl nitrone, reference compound] | 0.4% | – | – | – | – | – | – | –
CC1(C)CC(C(N)=O)C(C)(C)N1O (stereo not drawn) [Compound 24, 1-hydroxy-2,2,5,5-tetramethylpyrrolidine-3-carboxamide] | – | – | 362.00 ×10^−3 | 1166.50 ×10^−3 | 37.0% | 65.8% | – | –
CC1(C)C=C(CO)CC(C)(C)N1O.Cl [Compound 25] | – | – | 325.00 ×10^−3 | 1137.50 ×10^−3 | 42.0% | 62.9% | – | –
Cc1cc(O)c(O)cc1C(=O)NC1CC(C)(C)N(O)C(C)(C)C1.Cl [Compound 27, 4,5-dihydroxy-2-methyl-N-(1-hydroxy-2,2,6,6-tetramethylpiperidin-4-yl)benzamide] | – | – | 403.75 ×10^−3 | 1038.33 ×10^−3 | 53.4% | 88.3% | – | –
CC(C)(C)c1cc(NC(=O)C2CC(C)(C)N(O)C(C)(C)C2)cc(C(C)(C)C)c1O.Cl [Compound 29, N-(3,5-di-tert-butyl-4-hydroxyphenyl)-1-hydroxy-2,2,6,6-tetramethylpiperidine-4-carboxamide] | – | – | 105.75 ×10^−3 | 1328.00 ×10^−3 | 92.3% | 100% | – | –
CC1(C)CC(CO)C(C)(C)N1O.Cl (stereo not drawn) [Compound 33] | – | – | 300.00 ×10^−3 | 1237.50 ×10^−3 | 54.9% | 77.8% | – | –
CC1(C)C=CCC(C)(C)N1O.Cl [Compound 35, 1-hydroxy-1,2,3,6-tetrahydro-2,2,6,6-tetramethylpyridine] | – | – | 352.75 ×10^−3 | 1128.00 ×10^−3 | 64.4% | – | – | –
CC1(C)CC(OCc2ccccc2)CC(C)(C)N1O.Cl [Compound 43, 4-Benzyloxy-1-hydroxy-2,2,6,6-tetramethylpiperidine] | – | – | 324.67 ×10^−3 | 1159.00 ×10^−3 | – | 85.5% | 181.5 °C (dec.) | –
CC1(C)CC(Oc2nsnc2-c2ccccc2)CC(C)(C)N1O.Cl [Compound 44, 1-hydroxy-4-(4-phenyl-1,2,5-thiadiazol-3-yloxy)-2,2,6,6-tetramethylpiperidine] | – | – | 13.25 ×10^−3 | 23.00 ×10^−3 | – | 71.2% | 220.8 °C (dec.) | –
CC1(C)CC(O)(c2ccc(F)cc2)CC(C)(C)N1O.Cl [Compound 57, 4-(4-Fluorophenyl)-1-hydroxyl-2,2,6,6-tetramethylpiperidin-4-ol] | – | – | 426.25 ×10^−3 | 1078.50 ×10^−3 | – | 100% | 220 °C (dec.) | –
COc1cc(CNC2CC(C)(C)N(O)C(C)(C)C2)cc(OC)c1OC.Cl.Cl [Compound 58, N-(3,4,5-trimethoxybenzyl)-1-hydroxy-2,2,6,6-tetramethylpiperidin-4-amine] | – | – | 291.50 ×10^−3 | 1207.00 ×10^−3 | – | 39% | 181 °C | –
O=C(O)c1cc(C(=O)O)c2c(n1)C(=O)C(=O)c1cc(C(=O)O)[nH]c1-2 [PQQ, pyrroloquinoline quinone, reference compound] | – | – | – | – | – | – | – | 93.7%
